According to ChEMBL document CHEMBL1201862, “PubChem BioAssay data set” (2004):
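Each compound was tested at five concentrations against cells in 96-well plates for 48 hours. Here, GI50 denotes the concentration required for 50% inhibition of growth.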 Activity calls are given as the source filed them. No stated cut-off is given here; in the data, active = GI50 up to about 1.1 µM and inactive = higher.

What was measured:
Assay in all cases: NCI-60 cell line screen, 48 h
KM12 = system: KM12
UACC-257 = system: UACC-257
SK-MEL-2 = system: SK-MEL-2
K562 = system: K562
ACHN = system: ACHN
SF-268 = system: SF-268
UO-31 = system: UO-31
M14 = system: M14
SNB-75 = system: SNB-75
SN12C = system: SN12C
IGROV-1 = system: IGROV-1
HCC 2998 = system: HCC 2998
PC-3 = system: PC-3
SK-OV-3 = system: SK-OV-3
U-251 = system: U-251
A549 = system: A549
SK-MEL-5 = system: SK-MEL-5
OVCAR-5 = system: OVCAR-5
SR = system: SR
UACC-62 = system: UACC-62

Measured: GI50

CC(C)(C)N1C=[N+](C(C)(C)C)CC1
inactive: KM12 > 100 µM | UACC-257 > 100 µM | SK-MEL-2 > 100 µM | K562 > 100 µM | ACHN > 100 µM | SF-268 > 100 µM | UO-31 > 100 µM | M14 > 100 µM | SNB-75 75 µM | SN12C > 100 µM | IGROV-1 > 100 µM | HCC 2998 > 100 µM | PC-3 > 100 µM | SK-OV-3 > 100 µM | U-251 > 100 µM | A549 > 100 µM | SK-MEL-5 > 100 µM | OVCAR-5 > 100 µM | SR > 100 µM

Nc1ccccc1/N=N/c1c(S(=O)(=O)O)cc2cc(S(=O)(=O)O)cc(O)c2c1O
inactive: KM12 > 100 µM | UACC-257 > 100 µM | K562 > 100 µM | ACHN > 100 µM | SF-268 > 100 µM | UO-31 > 100 µM | M14 > 100 µM | SNB-75 > 100 µM | SN12C 11.2 µM | IGROV-1 > 100 µM | HCC 2998 > 100 µM | PC-3 > 100 µM | SK-OV-3 > 100 µM | UACC-62 > 100 µM | U-251 > 100 µM | A549 > 100 µM | SK-MEL-5 > 100 µM | OVCAR-5 > 100 µM | SR > 100 µM

Nc1nc(Cl)nc2c1ncn2C1CCC(COP(=O)(O)OP(=O)(O)OP(=O)(O)O)O1 (centres undefined)
inactive: KM12 32.4 µM | UACC-257 41.6 µM | ACHN 25.2 µM | SF-268 47.9 µM | UO-31 12.7 µM | M14 16.8 µM | SNB-75 34.4 µM | SN12C 38.8 µM | IGROV-1 30.5 µM | HCC 2998 28.1 µM | PC-3 23.1 µM | SK-OV-3 57.3 µM | UACC-62 18.1 µM | U-251 37.5 µM | A549 32.7 µM | OVCAR-5 22.8 µM | SR 23.1 µM

CC1=N[C@@](C)(C2CC3C=CC2C3=O)COC1=O (some centres undefined)
inactive: KM12 > 100 µM | UACC-257 > 100 µM | K562 > 100 µM | ACHN > 100 µM | SF-268 > 100 µM | UO-31 > 100 µM | M14 > 100 µM | SNB-75 > 100 µM | SN12C > 100 µM | IGROV-1 > 100 µM | HCC 2998 > 100 µM | PC-3 > 100 µM | SK-OV-3 > 100 µM | UACC-62 > 100 µM | U-251 > 100 µM | A549 > 100 µM | SK-MEL-5 > 100 µM | OVCAR-5 > 100 µM | SR > 100 µM
